These results are taken from patent US10308631B2, “Selective anti-cancer compounds” (NATIONAL UNIVERSITY OF SINGAPORE, priority 2015, dated 2019).

Assay [1] relates to mitotic marker phospho-histone H3 at serine 10 (pH3 (Ser10)) in transformed BJ cells. In words: Immunoblot analysis of mitotic marker pH3 (Ser10), derivatives of Compound 1. The assay is classed as cell-based. The conditions noted are these: Homo sapiens, band intensities pH3(Ser10)/β-actin vs DMSO control, 24 h. On the procedure:
(§1) FIG. 4 compares the ability of Compound 1 (a131), and various derivatives thereof (referred to using their code numbers for brevity; the designated chemical compound for each code number is provided in the chemical examples section below), to inhibit autophagy and/or mitosis. BJ transformed cells were treated with 5 μM of various Compounds as shown, for 24 h. Cells were harvested and total lysates were analysed by detecting the mitotic marker phospho-histone H3 at serine 10 (pH3 (Ser10)) and the autophagosome marker LC3. Antibodies raised against β-actin were used as an internal loading control.
(§2) The ability of Compound 1 to inhibit lysosome function was examined using immunoblotting. HeLa cervical cancer cells were cultured in Dulbecco's modified Eagle's medium (DMEM) supplemented with 10% Fetal Bovine Serum (FBS, Thermo Scientific). The HeLa cells were treated with different concentrations of Compound 1 (0.625, 1.25, 2.5, 5 and 10 μM, dimethyl sulfoxide (DMSO, Kanto Kagaku)), chloroquine (CQ) (1.25, 2.5, 10, 50 and 100 μM, DMSO) or DMSO for 6 h. Then, the treated cells were harvested and lysed in 1% triton lysis buffer [25 mM Tris HCl (pH8.0), 150 mM NaCl, 1% triton-X100, 1 mM dithiothreitol (DTT), protease inhibitor mix (Complete Mini, Roche) and phosphatase inhibitor (PhosphoStop, Roche)]. The proteins in total lysates were boiled with sample buffer (60 mM Tris-HCl (pH 6.8), 25% glycerol, 2% SDS, 14.4 mM 2-mercaptoethanol, 0.1% bromophenol blue) and resolved by 14% tris-glycine sodium dodecyl sulfate polyacrylamide gel electrophoresis (SDS-PAGE) and subjected to immunoblot analysis.
(§3) Defects in lysosome function and inhibition of autophagy can be measured by accumulation of LC3-phosphatidylethanolamine conjugated non-soluble form (LC3-II), which are converted from soluble LC3-I. Thus, antibodies raised against LC3 (Cell Signaling, Cat#4108) were used to determine lysosomal function and integrity. Antibodies raised against phosphorylated histone H3 at serine 10 residue (pH3) (Cell signaling, Cat#3377) were used as the marker for mitotic dysfunction and arrest. Antibodies raised against β-actin (Millipore, Cat#MAB1501) were used as an internal loading control. The inhibitory ability of Compound 1 was also quantitatively compared to CQ.
(§4) Derivatives of Compound 1 were tested to see if they had similar dual activity, or presented only one of the activities of Compound 1. The protocol for immunoblot analysis described in Biology Example 1 was applied to the additional indicated compounds.
(§5) Activities of compounds were determined by two independent experiments. First, Compounds were classified according to the intensity of increase in each of the mitotic marker phospho-histone H3 at serine 10 (pH3 (Ser 10)) and the autophagosome marker LC3, respectively, at 1.25 μM, when compared with 1.25 μM Compound 1 (a131).
(§6) Compounds classified “++” on either “mitosis” or “inhibits lysosome” show similar increase in each of the mitotic marker phospho-histone H3 at serine 10 (pH3 (Ser10)) and the autophagosome marker LC3, respectively, at 2.5 μM, when compared with 1.25 μM Compound 1 (a131); and compounds classified “+” on either “mitosis” or “inhibits lysosome” show similar increase in each of the mitotic marker phospho-histone H3 at serine 10 (pH3 (Ser10)) and the autophagosome marker LC3, respectively, at a concentration range of 5-10 μM, when compared with 1.25 μM Compound 1 (a131).
Compounds classified “+/−” on either “mitosis” or “inhibits lysosome” show less increase in each of the mitotic marker phospho-histone H3 at serine 10 (pH3 (Ser10)) and the autophagosome marker LC3, respectively, at a concentration range of 5-10 μM, when compared with 1.25 μM Compound 1 (a131).
Next, the ability of Compound 1 and its derivatives to induce mitotic arrest in transformed BJ cells was quantified as the fold induction of band intensities [pH3(Ser10)/β-actin] in comparison with DMSO control. […]

The test system of assay [2] is pH3 (Ser10) and LC3 in BJ transformed cells. In words: Immunoblot classification of compounds by pH3 and LC3 (FIG. 4). The assay is classed as cell-based, human. The conditions noted are these: 5 μM, 24 h. On the procedure: as §1, §4
(In general: A western blot detects proteins with antibodies after separation by electrophoresis.)

Assay [3] relates to autophagosome marker LC3 (LC3 II/LC3 I) in transformed BJ cells. The assay can be described thus: Immunoblot analysis of autophagosome marker LC3 (lysosome function), derivatives of Compound 1. The assay is classed as cell-based. The conditions noted are these: Homo sapiens, band intensities LC3 II/LC3 I vs DMSO control, 24 h. On the procedure:
as §1, §2, §3, §4, §5, §6
Compounds classified “+/−” on either “mitosis” or “inhibits lysosome” show less increase in each of the mitotic marker phospho-histone H3 at serine 10 (pH3 (Ser10)) and the autophagosome marker LC3, respectively, at a concentration range of 5-10 μM, when compared with 1.25 μM Compound 1 (a131). […]

Assay [4] concerns non-transformed normal BJ cells. The assay can be described thus: BrdU incorporation and FACS analysis (cell cycle arrest). The class given is cell-based, human. Particulars: 24 h; 2.5 and 5 μM (FIG. 9A, 9C). On the procedure:
A: is output from a FACS analysis of isogenic-non-transformed, without (panels a-c) (WT) or with (panels d-f) shRNA-mediated knockdown of p53 (p53KD), and oncogene-transformed BJ cells (panels g-i), each treated with 0, 5 or 2.5 μM Compound 1 (a131) for 24 h. Cells were doubly stained with PI (horizontal axis) and BrdU (vertical axis). The BrdU-positive population in panels a-c are indicated as arrows. B: is a diagrammatic representation of an immunoblot analysis showing isogenic non-transformed (normal) and oncogene-transformed BJ cells (transformed) treated with Compound 1 (a131) at 0, 2.5 or 5 μM for 24 h or 48 h. Cells were harvested and total lysates were analysed by detecting p53 and p21. Antibodies raised against β-actin were used as an internal loading control. C and D are histograms showing the percentage of bromodeoxyuracil (BrdU)-positive non-transformed (normal) BJ cells. C: Cells were treated with Group 1 Compound 1 (a131) at 2.5 and 5 μM, Compound 23 (b36) at 2.5 and 5 μM, and Compound 21 (b35) at 5 μM, and Group 2 Compound 25 (a166) at 2.5 and 5 μM, for 24 h. Cells were doubly stained with propidium iodide (PI) and BrdU, and subjected to FACS analysis. The BrdU-positive population are plotted as bars. D: Cells were treated with Group 1 Compound 1 (a131), Compound 16 (b5), and Compound 17 (b9); Group 2 Compound 13 (b12), Compound 12 (b16) and Compound 25 (a166), and Group 3 Compound 3 (a159) at 5 μM for 48 h. The percentage of cells with BrdU positive population, in comparison with DMSO control vehicle, is shown with mean values±S.D. (n=3).
Isogenic non-transformed and oncogene-transformed BJ cells (cultured as in Biology Example 3) were treated with Compound 1 at final concentrations of 2.5 and 5 μM for 24 h. The treated cells were then treated with 30 μM final concentration of 5-bromo-2′-deoxyuridine (BrdU, SIGMA) for 1 h to detect DNA synthesis as a marker for cell proliferation. Subsequently, the cells were fixed in EtOH at 4° C. overnight and permeabilized with 2N HCl/0.5% Triton X-100 for 30 min. The cells were then treated with 0.1M sodium tetraborate for 2 min and stained with anti-BrdU antibody (Invitrogen, Cat#B35129) for 60 min, followed by a 30 min treatment with 20 μg/mL of propidium iodide (PI) and 10 μg/mL RNaseA.
Furthermore, the abilities of additional five (5) Compounds to arrest cells at the stage of G1/S phase of the cell cycle were evaluated. […] The abilities of these Compounds to arrest cells at the stage of G1/S phase of the cell cycle were then measured by using BrdU incorporation assay and FACS analysis. The percentage of cells with BrdU positive population in comparison with DMSO control vehicle was determined and plotted with mean values±S.D. (n=3).
(Incorporation of labelled thymidine or its analogues reports DNA synthesis.)

Usually fold induction stands for the ratio of treated to control signal. Take `N#C/C(=C\c1cccc2cnccc12)c1cn(C(=O)C2CCNCC2)c2ccccc12` [Compound 21, (Z)-3-(isoquinolin-5-yl)-2-(1-(piperidine-4-carbonyl)-1H-indol-3-yl)acrylonitrile]: the fold induction at 5 µM in assay [1] was 10.1; in assay [3], 7.3. In assay [2], the “Inhibition of lysosome function and/or mitosis (FIG. 4)” value (from here on “Inhibition”) was “exhibit the dual properties of inhibiting both lysosome function and mitosis”. Further, the BrdU-positive cell population result in assay [4] is recorded as “substantially decreased the population of BrdU-positive cells”.
As for `N#C/C(=C\c1cccc2cnccc12)c1cn(C(=O)CCN)c2ccccc12` [Compound 22, (Z)-2-(1-(3-aminopropanoyl)-1H-indol-3-yl)-3-(isoquinolin-5-yl)acrylonitrile], the fold induction at 5 µM in assay [1] came out at 2.1; in assay [3] it was 4.1. In assay [2], the “Inhibition” value is “exhibit the dual properties of inhibiting both lysosome function and mitosis”.
On to `N#C/C(=C\c1cccc2cnccc12)c1cn(C(=O)C2CCN(C(=O)CCCC[C@@H]3SC[C@@H]4NC(=O)N[C@@H]43)CC2)c2ccccc12` [Compound 23, (Z)-3-(isoquinolin-5-yl)-2-(1-(1-(5-((3aS,4S,6aR)-2-oxohexahydro-1H-thieno[3,4-d]imidazol-4-yl)pentanoyl)piperidine-4-carbonyl)-1H-indol-3-yl)acrylonitrile], for which the fold induction at 5 µM in assay [1] stood at 18.6; in assay [3], 5.7. Moreover, the “Inhibition” value in assay [2] is “exhibit the dual properties of inhibiting both lysosome function and mitosis”. Further, in assay [4], the BrdU-positive cell population entry was “substantially decreased the population of BrdU-positive cells”.
With `N#C/C(=C\c1cccc2cnccc12)c1cn(C(=O)CCNC(=O)CCCC[C@@H]2SC[C@@H]3NC(=O)N[C@@H]32)c2ccccc12` [Compound 24, N-(3-(3-((Z)-1-cyano-2-(isoquinolin-5-yl)vinyl)-1H-indol-1-yl)-3-oxopropyl)-5-((3aS,4S,6aR)-2-oxohexahydro-1H-thieno[3,4-d]imidazol-4-yl)pentanamide], the figures for the fold induction at 5 µM in assay [1] and in assay [3] were 3.2 and 3.3, respectively. Further, the “Inhibition” value in assay [2] is “exhibit the dual properties of inhibiting both lysosome function and mitosis”.
Take `C(=C\c1c[nH]c2ccccc12)/c1cncc2cnccc12` [Compound 26, 4-((E)-2-(1H-indol-3-yl)vinyl)-2,7-naphthyridine]: the figures for the fold induction at 5 µM in assay [1] and in assay [3] were 1.2 and 2.7, respectively. In addition, in assay [2], the “Inhibition” value is listed as “inhibit lysosome function only”.
As for `C(=C\c1c[nH]c2ncccc12)/c1cccc2cnccc12` [Compound 27, 5-((E)-2-(1H-pyrrolo[2,3-b]pyridin-3-yl)vinyl)isoquinoline], the fold induction at 5 µM in assay [1] was 1.2; in assay [3], 2. For the same compound, the “Inhibition” value in assay [2] is on record as “inhibit lysosome function only”.
Consider `COCCOCC(=O)n1cc(/C(C#N)=C/c2cccc3cnccc23)c2ccccc21` [Compound 30, (Z)-2-(1-(2-(2-methoxyethoxy)acetyl)-1H-indol-3-yl)-3-(isoquinolin-5-yl)acrylonitrile], for which the values for the fold induction at 5 µM in assay [1] and in assay [3] were 12.8 and 4.1, respectively. Moreover, the “Inhibition” value in assay [2] is “exhibit the dual properties of inhibiting both lysosome function and mitosis”.
On to `N#C/C(=C\c1cccc2cnccc12)c1c[nH]c2cc(CN3CCCC3)ccc12` [Compound 31, (Z)-3-(isoquinolin-5-yl)-2-(6-((pyrrolidin-1-yl)methyl)-1H-indol-3-yl)acrylonitrile], for which the fold induction at 5 µM in assay [1] amounted to 1.1; in assay [3], 5.7. Moreover, the “Inhibition” value in assay [2] is “inhibit lysosome function only”.
For `N#C/C(=C\c1cccc2cnccc12)c1c[nH]c2ccc(CN3CCCC3)cc12` [Compound 32, (Z)-3-(isoquinolin-5-yl)-2-(5-((pyrrolidin-1-yl)methyl)-1H-indol-3-yl)acrylonitrile] the same measures were 1, 3.3 and “inhibit lysosome function only”.
In the same order, the values of `N#C/C(=C\c1cccc2cnccc12)c1c[nH]c2c(CN3CCCC3)cccc12` [Compound 33, (Z)-3-(isoquinolin-5-yl)-2-(7-((pyrrolidin-1-yl)methyl)-1H-indol-3-yl)acrylonitrile] are 0.8, 3.7 and “inhibit lysosome function only”.
For `N#C/C(=C\c1cccc2cnccc12)c1n[nH]c2ccccc12` [Compound 34, (Z)-2-(1H-indazol-3-yl)-3-(isoquinolin-5-yl)acrylonitrile] the same measures were 1.4, 2 and “inhibit lysosome function only”.
